Reference: patent US10087188B2, “Benzamide imidazopyrazine Btk inhibitors” (MERCK SHARP & DOHME CORP., priority 2014, dated 2018)
Where two headings read alike, the source gives them in different places.

Columns and labels:
[1] = target: BTK enzyme (recombinant full-length BTK, hBTK) (Homo sapiens (Human), UniProt Q06187); assay: Btk enzyme activity assay, LANCE TR-FRET; assay type: biochemical; settings: 50 pM hBTK, 2 μM biotin-A5-peptide, 25 μM ATP; 60 minute compound & enzyme incubation; read-out: BTK binding IC50
BTK enzyme (recombinant full-length BTK, hBTK), sequence (Q06187 whole entry): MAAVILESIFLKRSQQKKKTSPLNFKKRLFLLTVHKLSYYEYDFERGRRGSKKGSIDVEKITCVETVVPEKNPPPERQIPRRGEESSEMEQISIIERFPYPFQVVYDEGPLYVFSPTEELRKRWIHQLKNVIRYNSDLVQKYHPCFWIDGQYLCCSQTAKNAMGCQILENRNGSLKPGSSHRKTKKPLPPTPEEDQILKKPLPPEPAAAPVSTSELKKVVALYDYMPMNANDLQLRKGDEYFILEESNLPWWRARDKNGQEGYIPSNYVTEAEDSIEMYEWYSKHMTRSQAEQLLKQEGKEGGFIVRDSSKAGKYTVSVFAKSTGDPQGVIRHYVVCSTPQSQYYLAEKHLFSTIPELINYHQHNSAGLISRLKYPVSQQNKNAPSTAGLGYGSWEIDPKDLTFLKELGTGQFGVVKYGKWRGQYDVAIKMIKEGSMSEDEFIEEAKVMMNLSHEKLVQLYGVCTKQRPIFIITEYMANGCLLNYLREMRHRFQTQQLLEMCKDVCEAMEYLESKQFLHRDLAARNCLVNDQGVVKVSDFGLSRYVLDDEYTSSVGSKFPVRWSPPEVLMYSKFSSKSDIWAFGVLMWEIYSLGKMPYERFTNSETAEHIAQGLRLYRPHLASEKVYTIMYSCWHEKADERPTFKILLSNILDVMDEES
Description: Btk Enzyme Activity Assay Methods
BTK enzymatic activity was determined with the LANCE (Lanthanide Chelate Excite) TR-FRET (Time-resolved fluorescence resonance energy transfer) assay. […] After 60 minutes incubation with detection reagents, reaction plates were read on a PerkinElmer EnVision plate reader using standard TR-FRET protocol.

HeLa cells = assay: [3H] Adenosine uptake assay; assay type: cell-based; settings: accumulation of tritiated adenosine into HeLa cells, compound concentration range 10 μM to 0.032 nM, read-out: ADU inhibition IC50 (adenosine uptake inhibition potency)
Description: Compounds are also screen in an adenosine uptake functional cellular assay using the protocol described below:
[^3H] Adenosine Uptake Assay Methods
Adenosine uptake activity was determined by monitoring the accumulation of tritiated adenosine into HeLa cells (ATCC catalog #CCL-2) using a PMT-based radiometric detection instrument. […] These cells were incubated overnight at 37° C. in a humidified atmosphere with 5% (v/v) CO2. After this time the growth medium was removed and replaced with 40 μL assay medium comprising: Hanks balanced salts solution (HBSS; Thermo Fisher Catalog #SH30268.01)+5% (v/v) FBS. Compound stock solutions in DMSO were diluted in assay medium to 2.5× final compound concentration maintaining a constant DMSO concentration of 0.25% (v/v). 40 μL of compound in assay medium was dispensed into individual wells of the Cytostar-T plates and the plates were incubated for 30 minutes under ambient laboratory conditions. Following this incubation, 20 μL of 500 nM[^3H] adenosine (American Radiolabeled Chemicals Inc. Catalog #ART0287) in assay medium was added and incubated for a further 60 minutes under ambient laboratory conditions. The amount of radiolabel accumulation was then determined using a Perkin Elmer Topcount NXT microplate reader. In brief, HeLa cells adhere to the bottom of the Cytostar-T plate, uptake of [^3H]adenosine into these cells brings the radiolabel into sufficient proximity to excite the scintillant in the base of the plates. These events are captured by single PMT, time-resolved coincidence counting. IC50 values were determined by 4 parameter robust fit of counts per second values vs. (Log10) compound concentrations.

Structure (SMILES)	IC50 [1]	IC50 (HeLa cells)	IC50 (HeLa cells; Homo sapiens, HeLa)
Nc1nccn2c([C@@H]3CCC[C@H](C(=O)O)C3)nc(-c3ccc(C(=O)Nc4cc(C5CC5)ccn4)cc3F)c12 [Example 9, (1S,3R)-3-(8-amino-1-{4-[(4-cyclopropyl-pyridin-2-yl)carbamoyl]-2-fluorophenyl}imidazo[1,5-a]pyrazin-3-yl)cyclohexane-carboxylic acid]	1.2 nM		4400 nM
Nc1nccn2c([C@@H]3CCC[C@H](C(=O)O)C3)nc(-c3ccc(C(=O)Nc4cc(C(F)(F)F)ccn4)cc3F)c12 [Example 10, (1S,3R)-3-[8-amino-1-(2-fluoro-4-{[4-(trifluoromethyl)pyridin-2-yl]carbamoyl}phenyl)imidazo [1,5-a]pyrazin-3-yl]cyclohexane-carboxylic acid]	0.39 nM		10000 nM
COc1cc(C(=O)Nc2cc(C(F)(F)F)ccn2)ccc1-c1nc([C@@H]2CCC[C@H](C(=O)O)C2)n2ccnc(N)c12 [Example 11, (1S,3R)-3-[8-amino-1-(2-methoxy-4-{[4-(trifluoromethyl)pyridin-2-yl]carbamoyl}phenyl)imidazo [1,5-a]pyrazin-3-yl]cyclohexane-carboxylic acid]	1.6 nM		
Nc1nccn2c([C@@H]3CCC[C@H](C(=O)O)C3)nc(-c3ccc(C(=O)Nc4cc(OC5CC5)ccn4)cc3)c12 [Example 12, (1S,3R)-3-[8-amino-1-(4-{[4-(cyclopropyloxy)pyridin-2-yl]carbamoyl}phenyl)imidazo [1,5-a]pyrazin-3-yl]cyclohexane-carboxylic acid]	1.7 nM		
Nc1nccn2c([C@@H]3CC[C@H](C(=O)NC4(C(=O)O)CC4)C3)nc(-c3ccc(C(=O)Nc4cc(C(F)(F)F)ccn4)cc3)c12 [Example 16, 1-[({(1S,3R)-3-[8-amino-1-(4-{[4-(trifluoromethyl)pyridin-2-yl]carbamoyl}phenyl)imidazo[1,5-a]pyrazin-3-yl]cyclopentyl}carbonyl)amino] cyclopropane-carboxylic acid]	2.1 nM		4780 nM
Nc1nccn2c([C@H]3CC[C@@H](C(=O)N4CCC[C@H]4C(=O)O)C3)nc(-c3ccc(C(=O)Nc4cc(C(F)(F)F)ccn4)cc3)c12 [Example 17, 1-({(1R,3S)-3-[8-amino-1-(4-{[4-(trifluoromethyl)pyridin-2-yl]carbamoyl}phenyl)imidazo[1,5-a]pyrazin-3-yl]cyclopentyl}carbonyl)-L-proline]	1.9 nM		10000 nM
Nc1nccn2c([C@H]3CC[C@@H](C(=O)N4CCC[C@@H]4C(=O)O)C3)nc(-c3ccc(C(=O)Nc4cc(C(F)(F)F)ccn4)cc3)c12 [Example 18, 1-({(1R,3S)-3-[8-amino-1-(4-{[4-(trifluoromethyl)pyridin-2-yl]carbamoyl}phenyl)imidazo[1,5-a]pyrazin-3-yl]cyclopentyl}carbonyl)-D-proline]	2.6 nM		10000 nM
Nc1nccn2c([C@H]3CC[C@@H](C(=O)N4CC[C@@H](C(=O)O)C4)C3)nc(-c3ccc(C(=O)Nc4cc(C(F)(F)F)ccn4)cc3)c12 [Example 19, (3R)-1-({(1R,3S)-3-[8-amino-1-(4-{[4-(trifluoromethyl)pyridin-2-yl]carbamoyl}phenyl)imidazo[1,5-a]pyrazin-3-yl]cyclopentyl}carbonyl)pyrrolidine-3-carboxylic acid]	0.62 nM		2870 nM
CC1(C)CC(c2nc(-c3ccc(C(=O)Nc4cc(C(F)(F)F)ccn4)cc3)c3c(N)nccn23)CCC1C(=O)O (centres unmarked) [Example 20, 4-(8-amino-1-(4-((4-(trifluoromethyl)pyridin-2-yl)carbamoyl)phenyl)imidazo[1,5-a]pyrazin-3-yl)-2,2-dimethylcyclohexanecarboxylic acid]	1.5 nM		5080 nM

The next lines start with the values.

IC50 [1]	IC50 (HeLa cells)	IC50 (HeLa cells; Homo sapiens, HeLa)	Structure (SMILES)
7.5 nM	4440 nM		C[C@]1(C(=O)O)CC[C@H](N2CCO[C@@H](c3nc(-c4ccc(C(=O)Nc5cc(C(F)F)ccn5)cc4)c4c(N)ncc(Cl)n34)C2)CC1 (stereo in doubt) [Example 196, trans-4-{(2R)-2-[8-amino-5-chloro-1-(4-{[4-(difluoromethyl)pyridin-2-yl]carbamoyl}phenyl)imidazo [1,5-a]pyrazin-3-yl]morpholin-4-yl}-1-methylcyclohexanecarboxylic acid]
0.27 nM		1700 nM	CC1(C(=O)O)CCC(C)(c2nc(-c3ccc(C(=O)Nc4cc(C(F)(F)F)ccn4)cc3)c3c(N)nccn23)C1 (centres unmarked) [Example 21, 3-(8-amino-1-(4-((4-(trifluoromethyl)pyridin-2-yl)carbamoyl)phenyl)imidazo[1,5-a]pyrazin-3-yl)-1,3-dimethylcyclopentanecarboxylic acid]
0.66 nM		6290 nM	CCOc1cc(C(=O)Nc2cc(C(F)(F)F)ccn2)ccc1-c1nc(C2(C)CCC(C)(C(=O)O)C2)n2ccnc(N)c12 (centres unmarked) [Example 22, 3-(8-amino-1-(2-ethoxy-4-((4-(trifluoromethyl)pyridin-2-yl)carbamoyl)phenyl)imidazo[1,5-a]pyrazin-3-yl)-1,3-dimethylcyclopentanecarboxylic acid]
0.56 nM		10000 nM	Nc1nccn2c(-c3cccc(C(=O)O)c3)nc(-c3ccc(C(=O)Nc4cc(C(F)(F)F)ccn4)cc3)c12 [Example 23, 3-(8-amino-1-(4-((4-(trifluoromethyl)pyridin-2-yl)carbamoyl)phenyl)imidazo[1,5-a]pyrazin-3-yl)benzoic acid]
1 nM		10000 nM	Nc1nccn2c(-c3ccc(F)c(C(=O)O)c3)nc(-c3ccc(C(=O)Nc4cc(C(F)(F)F)ccn4)cc3)c12 [Example 24, 5-[8-amino-1-(4-{[4-(trifluoromethyl)pyridin-2-yl]carbamoyl}phenyl)imidazo[1,5-a]pyrazin-3-yl]-2-fluorobenzoic acid]
1.7 nM		6110 nM	Nc1nccn2c(-c3ccc(C(=O)O)c(F)c3)nc(-c3ccc(C(=O)Nc4cc(C(F)(F)F)ccn4)cc3)c12 [Example 25, 4-[8-amino-1-(4-{[4-(trifluoromethyl)pyridin-2-yl]carbamoyl}phenyl)imidazo[1,5-a]pyrazin-3-yl]-2-fluorobenzoic acid]
0.97 nM		5580 nM	Nc1nccn2c(-c3ccc(C(=O)O)cc3)nc(-c3ccc(C(=O)Nc4cc(C(F)(F)F)ccn4)cc3)c12 [Example 26, 4-[8-amino-1-(4-{[4-(trifluoromethyl)pyridin-2-yl]carbamoyl}phenyl)imidazo[1,5-a]pyrazin-3-yl]benzoic acid]
2 nM		10000 nM	Nc1nccn2c(-c3ccc(C(=O)O)[nH]3)nc(-c3ccc(C(=O)Nc4cc(C(F)(F)F)ccn4)cc3)c12 [Example 27, 5-[8-amino-1-(4-{[4-(trifluoromethyl)pyridin-2-yl]carbamoyl}phenyl)imidazo[1,5-a]pyrazin-3-yl]-1H-pyrrole-2-carboxylic acid]
2.4 nM		10000 nM	Nc1nccn2c(-c3ccc(C(=O)O)o3)nc(-c3ccc(C(=O)Nc4cc(C(F)(F)F)ccn4)cc3)c12 [Example 28, 5-[8-amino-1-(4-{[4-(trifluoromethyl)pyridin-2-yl]carbamoyl}phenyl)imidazo[1,5-a]pyrazin-3-yl]furan-2-carboxylic acid]
2.6 nM			Nc1nccn2c([C@H]3CCN[C@@H](C(=O)O)C3)nc(-c3ccc(C(=O)Nc4cc(C(F)(F)F)ccn4)cc3)c12 [Example 31, (2R,4S)-4-[8-amino-1-(4-{[4-(trifluoromethyl)pyridin-2-yl]carbamoyl}phenyl)imidazo[1,5-a]pyrazin-3-yl]piperidine-2-carboxylic acid]
2.8 nM			C[C@]1(C(=O)O)CCC[C@@H](c2nc(-c3ccc(C(=O)Nc4cc(C5CC5)ccn4)cc3)c3c(N)nccn23)C1 [Example 155, (1S,3R)-3-(8-amino-1-{4-[(4-cyclopropylpyridin-2-yl)carbamoyl]phenyl}imidazo[1,5-a]pyrazin-3-yl)-1-methylcyclohexane-carboxylic acid]
1.7 nM			C[C@]1(C(=O)O)CCC[C@@H](c2nc(-c3ccc(C(=O)Nc4cc(C5CC5)ccn4)cc3F)c3c(N)nccn23)C1 [Example 156, (1S,3R)-3-(8-amino-1-{4-[(4-cyclopropylpyridin-2-yl)carbamoyl]-2-fluorophenyl}imidazo [1,5-a]pyrazin-3-yl)-1-methylcyclohexane-carboxylic acid]
8.6 nM			Nc1nccn2c([C@H]3CN(C(=O)C4(C(=O)O)CCC4)CCO3)nc(-c3ccc(C(=O)Nc4cc(C(F)(F)F)ccn4)cc3F)c12 [Example 178, 1-({(2R)-2-[8-amino-1-(2-fluoro-4-{[4-(trifluoromethyl)pyridin-2-yl]carbamoyl}phenyl)imidazo [1,5-a]pyrazin-3-yl]morpholin-4-yl}carbonyl)cyclobutane-carboxylic acid]
